This is an account of results in patent publication US12668568B2, “Adamantanyl-substituted benzamide compounds and their use as P2X7 receptor antagonists” (The University of Sydney, priority 2018, dated 2026).

Broadly, the IC50 is the concentration that inhibits the measured activity by half. In general, Papp A→B refers to the apparent permeability from the apical to the basolateral side of a cell layer. Low values mean slow passage, high ones fast passage. The term Papp B→A denotes how fast a substance crosses the layer from the basolateral side. One may read the inhibition as the drop in the measured response relative to a control, in per cent.

One series concerns the target T1, mP2X7R (Mus musculus, UniProt Q9Z1M0).
T1 construct: expressed in transfected cells; host or cells: HEK293T, G418-selected; gift from Dr Leanne Stokes and Prof; Jim Wiley
T1 sequence (Q9Z1M0 1-595): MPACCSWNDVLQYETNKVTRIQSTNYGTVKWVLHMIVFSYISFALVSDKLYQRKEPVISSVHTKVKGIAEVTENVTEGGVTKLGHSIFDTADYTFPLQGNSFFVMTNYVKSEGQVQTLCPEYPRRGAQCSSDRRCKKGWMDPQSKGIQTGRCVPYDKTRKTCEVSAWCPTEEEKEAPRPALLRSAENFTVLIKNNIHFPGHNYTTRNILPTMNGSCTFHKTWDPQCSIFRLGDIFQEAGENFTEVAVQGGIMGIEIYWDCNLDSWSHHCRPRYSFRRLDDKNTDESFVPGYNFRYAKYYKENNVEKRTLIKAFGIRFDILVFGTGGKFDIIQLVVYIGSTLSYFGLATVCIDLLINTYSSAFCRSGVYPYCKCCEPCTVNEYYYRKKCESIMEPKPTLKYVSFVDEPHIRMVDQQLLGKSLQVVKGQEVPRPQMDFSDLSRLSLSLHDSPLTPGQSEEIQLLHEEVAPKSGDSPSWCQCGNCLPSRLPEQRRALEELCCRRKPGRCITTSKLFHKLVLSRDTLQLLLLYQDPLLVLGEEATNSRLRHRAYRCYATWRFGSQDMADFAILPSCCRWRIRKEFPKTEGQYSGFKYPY
Nature of the series: Calcium influx assay in HEK-mP2X7 cells. Format: cell-based. The following applies: HEK cells expressing mP2X7R, BzATP 100 μM; mean ± standard deviation, n >3. The method, then: HEK293T cells transfected with cDNA for the human (HEK-hP2X7) or mouse P2X7 (HEK-mP2X7) receptor (a kind gift from Dr […] Stokes and Prof. Jim Wiley) were cultured in DMEM/F12 with 10% FBS and 500 μg/mL G418 (all from Invitrogen). […] HEK-hP2X7 or HEK-mP2X7 cells were harvested using trypsin (0.05%) with EDTA (0.03%). Cells were loaded with Fluo-4 AM (1 μM) in HBSS buffer at 37° C. for 30 min, inverting every 5 mins. […] Cells were resuspended a final time in assay buffer and seeded into black-walled 96 well clear-bottom plates at a density of 5×10^4 cells/well. […] Fluorescence was then monitored every 5 s for 5 min total monitoring. […] Data were normalized to the peak response seen with BzATP alone and the basal response seen due to injection of vehicle (see FIG. 3).

The subject of the next series is P-gp (human MDR1). Nature of the series: MDCK P-glycoprotein bidirectional permeability assay. It counts as in vitro ADME, canine. The settings on record: dog, 30 minute, 37° C.; for Papp A→B at 30 min, 10 μM: apical to basolateral; for Papp B→A at 30 min, 10 μM: basolateral to apical. The method, then:
The transcellular permeability of test compounds and the influence of Pgp-mediated efflux on drug permeability was assessed using hMDR1-MDCK monolayers grown on filter supports. All compounds were dissolved in 100% DMSO to provide 10 mM stock solutions from which donor (dose) solutions were prepared in DMEM to give a final drug concentration of 10 μM. All dose solutions contained 10 μM propranolol as an internal standard. hMDR1-MDCK seeded filters were exposed to a fixed volume of the donor solution containing the compound of interest and its ability to traverse the monolayer and appear in the receiver compartment measured over a 30 minute period at 37° C. Bidirectional permeability measurements were derived by examining the transfer of compound in both the apical to basolateral compartment, and vice versa. Sample analysis was conducted using LC-MS/MS with the detection settings optimised for each test compound. Following analysis of the samples the apparent permeability coefficient (Papp, cm/sec) for the discovery compounds is determined using the following relationship: [formula] • VR=Volume of the receiver compartment • A=Surface area of the filter • CD=Drug concentration in the donor concentration • Δt=incubation time • ΔCR=the amount of drug detected in the receiver compartment The efflux ratio can be determined from these values by calculating the ratio of the Papp values derived in the B-A direction and A-B direction (i.e. Papp B-A/Papp A-B). […] P-gp) influencing transport.

Series [1] in a line: Liver microsome stability. Format: in vitro ADME. The settings on record: liver microsomes, rat liver microsome, 37° C., read-out: Liver microsome T1/2 (converted). An excerpt:
Microsomes are vesicles of endoplasmic reticulum isolated from liver homogenate following differential centrifugation. They contain drug metabolising enzymes including the cytochromes P450 (CYP) responsible for a majority of drug metabolism. They also contain the phase II metabolising enzyme responsible for glucuronidation—uridine diphosphate glucuronyltransferase (UDPGT). As they contain many of the drug metabolizing enzymes found in the liver they are useful in vitro models of hepatic clearance. Assays are performed by incubating drugs of interest at a concentration of 1 μM with the microsomes at 37° C. The disappearance of the test compound is monitored at fixed points over a period of 60 minutes and samples analysed using LC-MSMS. The resulting data can be used to determine: • 1. Intrinsic clearance. These values can be used to categorise compounds into bands of high, medium or low clearance. Generally compounds with high clearances are considered to be less favourable as they are likely to be cleared more rapidly in vivo resulting in a short duration of action. • 2. Rank order compounds in order of microsomal stability by calculating half-life. Cytochrome Profiling […]

The target of a further series is T2, CYP2C19 (Homo sapiens, UniProt P33261).
T2 construct: host or cells: insect cells infected with recombinant baculovirus (microsomes)
As to the kind of experiment: Cytochrome profiling CYP2C19 (baculosomes). Format: in vitro ADME. The following applies: probe fluorogenic probe substrate (not named), 10 μM substrate. An excerpt: Cytochrome P450 (abbreviated CYP, P450 or CYP450) belong to very large and diverse superfamily of haemoproteins which accept both exogenous and endogenous compounds as substrates in enzymatic reactions and play a major role in drug metabolism. Although this class has more than 50 enzymes just 5 of them (CYP1A2, CYP2C9, CYP2C19, CYP2D6 and CYP3A4) are able to metabolise almost 90% of all drugs. Inhibition of these enzymes is one of the major reasons for drug-drug interactions. Consequently, detailed CYP inhibition profiles are a regulatory requirement for all new drugs. Inhibition potencies against the five most relevant CYP isoforms is performed using baculosomes; microsomes prepared from insect cells infected with recombinant baculovirus containing cDNA for a specific human P450 isozyme. The baculosomes are incubated with drug at a concentration of 1 μM in the presence of a probe substrate for 60 minutes at 37° C. The probe is normally metabolised by the baculosomes to produce a fluorescent metabolite. A substrate drug will compete for the isozyme and reduce the metabolism of the probe resulting in a decrease in the fluorescent signal. The percent inhibition due to the presence of the test compound is calculated using the following equation: [formula] • X=fluorescent intensity observed in the presence of test compound • A=fluorescent intensity observed in control • B=fluorescent intensity observed in the presence of the probe control

T2 sequence (P33261 whole entry): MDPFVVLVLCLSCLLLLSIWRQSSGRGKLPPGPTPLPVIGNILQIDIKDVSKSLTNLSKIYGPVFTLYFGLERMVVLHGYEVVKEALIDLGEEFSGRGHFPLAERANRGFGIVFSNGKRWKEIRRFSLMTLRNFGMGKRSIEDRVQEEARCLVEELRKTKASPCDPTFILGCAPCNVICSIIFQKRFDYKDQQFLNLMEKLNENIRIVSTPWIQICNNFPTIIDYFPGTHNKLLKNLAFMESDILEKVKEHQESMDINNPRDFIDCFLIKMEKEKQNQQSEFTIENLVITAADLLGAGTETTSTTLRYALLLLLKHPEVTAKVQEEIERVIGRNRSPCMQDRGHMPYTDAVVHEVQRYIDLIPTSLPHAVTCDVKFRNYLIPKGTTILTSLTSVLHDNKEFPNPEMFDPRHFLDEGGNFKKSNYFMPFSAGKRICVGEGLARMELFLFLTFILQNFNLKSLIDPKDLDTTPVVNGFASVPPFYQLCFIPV

`COc1ccc(Cl)c(C(=O)NCC23CC4(F)CC(F)(CC(F)(C4)C2)C3)c1` [Compound 1, 2-Chloro-N-((3,5,7-trifluoroadamantan-1-yl)methyl)-5-methoxybenzamide]: the concentration for half-maximal inhibition (IC50) at mP2X7R was 158 ± 44 nM. For the same compound, in the series with P-gp (human MDR1), the apparent permeability from apical to basolateral (Papp A→B) at 30 min, 10 μM came out at 30.3 ×10⁻⁶ cm/s and the apparent permeability from basolateral to apical (Papp B→A) at 30 min, 10 μM was 44.2 ×10⁻⁶ cm/s. Also, the half-life at 1 μM in series [1] is 46.8 min. Moreover, the inhibition at 60 min, 1 μM against CYP2C19 was found to be 12.9%.

Take `COc1ccc(Cl)c(C(=O)NCC23CC4CC(F)(CC(F)(C4)C2)C3)c1` [Compound 2, 2-Chloro-N-((3,5-difluoroadamantan-1-yl)methyl)-5-methoxybenzamide]: at mP2X7R, the IC50 was 575 ± 108 nM. In addition, in the series with P-gp (human MDR1), the Papp A→B at 30 min, 10 μM came to 40 ×10⁻⁶ cm/s and the apparent permeability from basolateral to apical (Papp B→A) at 30 min, 10 μM stood at 54.8 ×10⁻⁶ cm/s. Besides, in series [1], the half-life at 1 μM is 18 min. At CYP2C19, the inhibition at 60 min, 1 μM was 1.5%.

Take `COc1ccc(Cl)c(C(=O)NCC23CC4CC(CC(F)(C4)C2)C3)c1` [Compound 3, 2-Chloro-N-((3-fluoroadamantan-1-yl)methyl)-5-methoxybenzamide]: the IC50 at mP2X7R worked out at 1510 ± 339 nM. In the series on P-gp (human MDR1), the Papp A→B at 30 min, 10 μM was found to be 28.1 ×10⁻⁶ cm/s and the apparent permeability from basolateral to apical (Papp B→A) at 30 min, 10 μM turned out to be 34.3 ×10⁻⁶ cm/s. For the same compound, the half-life at 1 μM in series [1] was 4.8 min. Moreover, on CYP2C19, the inhibition at 60 min, 1 μM stood at 46.9%.

With `COc1ccc(Cl)c(C(=O)NCC23CC4CC(CC(C4)C2)C3)c1` [Compound 31, reference compound], the IC50 on mP2X7R turned out to be 1900 ± 905 nM. For the same compound, in the series with P-gp (human MDR1), the Papp A→B at 30 min, 10 μM was determined as 40.9 ×10⁻⁶ cm/s and the Papp B→A at 30 min, 10 μM is 23.6 ×10⁻⁶ cm/s. In addition, in series [1], the half-life at 1 μM is 7.8 min. On CYP2C19, this compound gave an inhibition at 60 min, 1 μM of 84.4%.
